Measured values: patent US5614192A, “T cell receptor peptides as therapeutics for immune-related disease” (Connective Therapeutics, Inc., priority 1993, dated 1997)
Several values for one entry are separate records, joined by “and”; a condition that tells them apart may be missing. Identical values can stand only once. Marks after values point to notes of the source that are not given here. Ends that are not written are not given here.

Key:
TCR Vβ8(39-59) peptide = assay type: binding, rat
EAE [1] = experiment: Clinical EAE in rats treated with TCR Vβ8(39-59) before or after onset (Table 22); assay type: in vivo
Method: The ability of the TCR Vβ8(39-59) given either SC (in adjuvant) or ID (in saline) to disrupt the disease process when given at various times after induction of EAE with GPBP was tested (Table 22). […] In both cases, with both routes of injection of the peptide, there was a significant reduction in the duration of the disease, though not in the severity or time of onset. The efficacy of the peptide given in saline via the ID route is of particular importance to human therapy, as it is preferred to SC injection in adjuvant.
In Experiment 2, the time of ID administration of the TCR peptide was varied, as was the dose. […] A delay in onset of the disease was also observed. Furthermore, the percentage of animals showing signs of the disease decreased. A larger dose of the peptide (200 μg) appeared less efficacious than the lower dose, possibly due to a short-term overload of the peptide which could have comprised the immune response generated against the TCR. Treatment with a similarly sized peptide corresponding to an irrelevant TCR had no effect on onset, severity or incidence of EAE, but may have reduced the duration somewhat (last line of Table 22).

EAE [2] = conditions: rat, in vivo
Method: Male Lewis rats (225250 g) were challenged SC with 100 μg TCR

EAE [3] = experiment: Prevention and suppression of EAE by immunization with TCR Vβ8(39-59) (Table 17); assay type: in vivo, Lewis rats
LNC and T cell lines = experiment: T cell proliferation after treatment of EAE with TCR Vβ8 39-59/CFA (Table 27); assay type: cell-based, rats
Method: Lymphocyte Proliferation: Activation of T cells was measured by ^3 H-Tdy uptake. 500,000 lymph node cells or 20,000 line cells in the presence of 1 million irradiated thymic accessory cells were incubated with culture medium and antigens in microtiter wells for 18 hours prior to the addition of 0.5 μBq labeled thymidine. The cell cultures were harvested onto glass fiber filters and counted by liquid scintillation techniques. Mean CPM were calculated from triplicate cultures. Standard deviations (SD) from replicate cultures varied <10% from the mean value.
^a Treated rats were injected s.q. with 50 μg TCR Vβ839-59
^b LW cells collected after the untreated group recovered from EAE

TCR Vβ 8(39-59) = assay type: binding, rat
Gp-S53 = target: T1, Gp-S53 (Cavia porcellus, UniProt P25188); experiment: Direct ELISA, antibody reactivity (Example VII); assay type: binding, guinea pig
T1 construct: Gp-S53 (residues 75-84); made in house; host or cells: chemical solid-phase synthesis

[4] = tested on: T cell lines derived from rats protected from EAE; experiment: Proliferation of LN cells and T cell lines from rats protected by TCR Vβ8 peptide (Table 12); assay type: cell-based, rat
EAE [5] = experiment: Prevention, suppression and treatment of EAE with TCR Vβ8-39-59 peptide (Table 25); assay type: in vivo, Lewis rats
[6] = Exp. 1, 100 μg SC in CFA, day 10
[7] = Exp. 1, 100 μg SC in CFA, day 13
[8] = peptide day 0, Gp-(S87-99) challenge day 44
[9] = peptide day 0, Gp-S49S challenge day 44
[10] = peptide/CFA s.q., Day 0, listed as TCR

For “DMGHGLRLIHYSYDVNSTEKG [TCR Vβ8(39-59), 21-amino acid CDR2 peptide of rat TCR Vβ8]”, the “absorbance of serum on TCR Vβ8(39-59) peptide (A405)” value (TCR Vβ8(39-59) peptide) was 0.63±0.12 units, the “Day of Onset” value (EAE [1]; Exp. 1, 50 μg ID, day 13) was 13.4 ± 0.5 and the “Disease Duration” value (EAE [1]; Exp. 1, 50 μg ID, day 13) was 3.2 ± 0.5. The “Disease Incidence” value (EAE [1]; Exp. 1, 50 μg ID, day 13) was 5/5, the “Disease Severity” value (EAE [1]; Exp. 1, 50 μg ID, day 13) was 2.6 ± 0.4 and the “Day of Onset” value (EAE [1]; [6]) was 14.0 ± 0.4. For the same sequence, the “Disease Duration” value (EAE [1]; [6]) was 3.2 ± 0.4, the “Disease Incidence” value (EAE [1]; [6]) was 5/5 and the “Disease Severity” value (EAE [1]; [6]) was 2.8 ± 0.4. For the same sequence, the “Day of Onset” value (EAE [1]; [7]) was 13.0 ± 0, the “Disease Duration” value (EAE [1]; [7]) was 4.0 ± 0 and the “Disease Incidence” value (EAE [1]; [7]) was 5/5. The “Disease Severity” value (EAE [1]; [7]) was 3.0 ± 0, the “Day of Onset” value (EAE [1]; Exp. 2, 50 μg ID, day 7) was 15.0 ± 0.8 and the “Disease Duration” value (EAE [1]; Exp. 2, 50 μg ID, day 7) was 2.0 ± 2.0. The “Disease Incidence” value (EAE [1]; Exp. 2, 50 μg ID, day 7) was 4/6, the “Disease Severity” value (EAE [1]; Exp. 2, 50 μg ID, day 7) was 1.7 ± 1.4 and the “Day of Onset” value (EAE [1]; Exp. 2, 50 μg ID, day 14) was 16.0 ± 1. The “Disease Duration” value (EAE [1]; Exp. 2, 50 μg ID, day 14) was 2.3 ± 2.0, the “Disease Incidence” value (EAE [1]; Exp. 2, 50 μg ID, day 14) was 4/6 and the “Disease Severity” value (EAE [1]; Exp. 2, 50 μg ID, day 14) was 1.7 ± 1.5. For the same sequence, the “Day of Onset” value (EAE [1]; Exp. 2, 50 μg, day 0) was 15.6 ± 2.6, the “Disease Duration” value (EAE [1]; Exp. 2, 50 μg, day 0) was 2.3 ± 1.6 and the “Disease Incidence” value (EAE [1]; Exp. 2, 50 μg, day 0) was 5/6. The “Disease Severity” value (EAE [1]; Exp. 2, 50 μg, day 0) was 1.8 ± 1.0, the “Day of Onset” value (EAE [1]; Exp. 2, 200 μg ID, day 13) was 14.0 ± 1.4 and the “Disease Duration” value (EAE [1]; Exp. 2, 200 μg ID, day 13) was 3.0 ± 1.2. For the same sequence, the “Disease Incidence” value (EAE [1]; Exp. 2, 200 μg ID, day 13) was 6/6, the “Disease Severity” value (EAE [1]; Exp. 2, 200 μg ID, day 13) was 2.3 ± 0.8 and the “Clinical Signs of EAE” value (EAE [2]) was “None”. For the same sequence, the “Clinical Score” value (EAE [3]; 100 μg peptide/CFA day 0, GPBP (50 μg) challenge day 0) was 0.7 ± 0.3, the “Clinical Score” value (EAE [3]; 100 μg peptide/CFA day 0, Gp-S49S (100 μg) challenge day 0) was 0.5 and the “Clinical Score” value (EAE [3]; [8]) was 0.0. The “Histological Score Br” value (EAE [3]; [8]) was 0.5 ± 0.6, the “Histological Score Sc” value (EAE [3]; [8]) was 0.8 ± 0.5 and the “Clinical Score” value (EAE [3]; [9]) was 0.8. For the same sequence, the “Histological Score Br” value (EAE [3]; [9]) was 1.8 ± 1.7, the “Histological Score Sc” value (EAE [3]; [9]) was 2.8 ± 1.0 and the “net proliferation of reactive cells” value (LNC and T cell lines; GP-MBP-selected line from TCR peptide-treated rats) was 49,000 CPM. For the same sequence, the “net proliferation of reactive cells” value (LNC and T cell lines; GP-MBP-selected line from untreated EAE-recovered rats) was 9,000 CPM, the Proliferation (LNC and T cell lines; Treated rats (TCR Vβ8 39-59/CFA at onset), LNC) was 39 ± 4 CPM/1000 and the Proliferation (LNC and T cell lines; Treated rats, line BP/1st) was 66 ± 6 CPM/1000. The Proliferation (LNC and T cell lines; Treated rats, line Vβ8/1st) was 85 ± 2 CPM/1000, the Proliferation (LNC and T cell lines; Untreated rats (GPBP/CFA only), LNC) was 34 ± 4 CPM/1000 and the Proliferation (LNC and T cell lines; Untreated rats, line BP/1st) was 24 ± 3 CPM/1000. The Proliferation (LNC and T cell lines; Untreated rats, line Vβ8/1st) was 34 ± 2 CPM/1000, the Proliferation (LNC and T cell lines; Untreated rats, line Vβ14/1st) was 11 ± 1 CPM/1000 and the “Antisera Reactivity Against TCR Vβ 8 (39-59)” value (TCR Vβ 8(39-59)) was 629 and 621. For the same sequence, the “Theoretical Absorbance against Gp-S53 normalized to 1:40” value (Gp-S53; TCR d. 0, Gp-S49S d. 48, bleed d. 74) was 910 Absorbance (×10^3), the “Antisera Reactivity Against Gp-S53” value (Gp-S53; TCR day 0, Gp-S(87-99) d. 44, bleed d. 65, 1:320) was 46 Absorbance (×10^3) and the “Antisera Reactivity Against Gp-S53” value (Gp-S53; TCR peptide d. 0, Gp-S49S d. 48, bleed d. 74, 1:80) was 455 Absorbance (×10^3). For the same sequence, the “T Cell Proliferation” value ([4]; 1st value column (head not given; LN cells of protected rats)) was 27 cpm × 10^-3, the “T Cell Proliferation” value ([4]; 2nd value column (head not given, TCR Vβ8(39-59)-selected line)) was 100 cpm × 10^-3 and the “T Cell Proliferation” value ([4]; 4th value column (head not given; mixed TCR- and BP-specific T cells)) was 140 cpm × 10^-3. The “T Cell Proliferation” value ([4]; +OX-6 (anti I-A)) was 99 cpm × 10^-3, the “T Cell Proliferation” value ([4]; +OX-8 (anti-CD8)) was 22 cpm × 10^-3 and the “T Cell Proliferation” value ([4]; +OX-17 (anti I-E)) was 100 cpm × 10^-3. For the same sequence, the “T Cell Proliferation” value ([4]; +OX-18 (anti class 1)) was 31 cpm × 10^-3, the “T Cell Proliferation” value ([4]; +W3/25 (anti-CD4)) was 105 cpm × 10^-3 and the “T Cell Proliferation” value ([4]; GPBP-selected line) was 1 cpm × 10^-3. The maximum clinical severity (EAE [5]; 50 μg i.d. on day 0, 7 or 11, controls 3.4) was 1.7-1.8, the “duration of EAE” value (EAE [5]; 50 μg i.d. on day 0, 7 or 11, controls 6.6 days) was 3 to 4 days and the EAE/TOTAL (EAE [5]; i.d. in saline, Day 0) was 5/6. The EAE/TOTAL (EAE [5]; i.d., 10 μg, day of onset) was 6/6, the “Max Clin. Signs” value (EAE [5]; i.d., 10 μg, day of onset) was 2.8 ± 0.4 and the Onset (EAE [5]; i.d., 10 μg, day of onset) was 12. For the same sequence, the Duration (EAE [5]; i.d., 10 μg, day of onset, listed as TCR) was 4.0 ± 0.9 days, the Duration (EAE [5]; i.d., 10 μg, day of onset, listed as TCR peptide) was 4.0 days and the EAE/TOTAL (EAE [5]; i.d., 50 μg, day of onset) was 9/9. The “Max Clin. Signs” value (EAE [5]; i.d., 50 μg, day of onset) was 2.8 ± 0.3, the Onset (EAE [5]; i.d., 50 μg, day of onset) was 12 and the Duration (EAE [5]; i.d., 50 μg, day of onset, listed as TCR) was 3.1 ± 0.3 days. For the same sequence, the Duration (EAE [5]; i.d., 50 μg, day of onset, listed as TCR peptide) was 3.1 days, the Duration (EAE [5]; i.d., Day 0) was 3.0 ± 1.8 days and the “Max Clin. Signs” value (EAE [5]; i.d., Day 0) was 1.8 ± 1.0. For the same sequence, the Onset (EAE [5]; i.d., Day 0) was 15, the Duration (EAE [5]; i.d., Day 7) was 2.0 ± 1.9 days and the EAE/TOTAL (EAE [5]; i.d., Day 7) was 4/6. The “Max Clin. Signs” value (EAE [5]; i.d., Day 7) was 1.7 ± 1.4, the Onset (EAE [5]; i.d., Day 7) was 14 and the Duration (EAE [5]; i.d., Day before onset) was 2.5 ± 2.1 days. For the same sequence, the EAE/TOTAL (EAE [5]; i.d., Day before onset) was 6/8, the “Max Clin. Signs” value (EAE [5]; i.d., Day before onset) was 1.8 ± 1.3 and the Onset (EAE [5]; i.d., Day before onset) was 12. For the same sequence, the “rats with onset of EAE completely prevented” value (EAE [5]; injection after GP-MBP challenge but before onset) was 4/19, the “rats with all clinical signs of EAE completely suppressed” value (EAE [5]; injection at the same time as GP-MBP challenge) was 6/19 and the Duration (EAE [5]; peptide/CFA s.q., Day 0) was 2.0 days. The EAE/TOTAL (EAE [5]; peptide/CFA s.q., Day 0) was 8/13, the “Max Clin. Signs” value (EAE [5]; peptide/CFA s.q., Day 0) was 1.3 and the Onset (EAE [5]; peptide/CFA s.q., Day 0) was 13. The Duration (EAE [5]; [10]) was 2.0 ± 1.8 days, the “Max Clin. Signs” value (EAE [5]; [10]) was 1.3 ± 1.1 and the Duration (EAE [5]; peptide/CFA s.q., Day -40) was 0 ± 0 days. The EAE/TOTAL (EAE [5]; peptide/CFA s.q., Day -40) was “complete protection against clinical EAE”, the “Max Clin. Signs” value (EAE [5]; peptide/CFA s.q., Day -40) was 0 ± 0 and the EAE/TOTAL (EAE [5]; peptide/CFA s.q., Day -40, listed as TCR) was 0/20. For the same sequence, the Duration (EAE [5]; peptide/CFA s.q., Day onset) was 3.5 days, the EAE/TOTAL (EAE [5]; peptide/CFA s.q., Day onset) was 20/20 and the “Max Clin. Signs” value (EAE [5]; peptide/CFA s.q., Day onset) was 2.3 ± 0.9. It also gave an Onset (EAE [5]; peptide/CFA s.q., Day onset) of 12, a Duration (EAE [5]; peptide/CFA s.q., Day onset, listed as TCR) of 3.5 ± 1.4 days and a Duration (EAE [5]; peptide/CFA, Day 10) of 3.6 ± 0.9 days. The EAE/TOTAL (EAE [5]; peptide/CFA, Day 10) was 5/5, the “Max Clin. Signs” value (EAE [5]; peptide/CFA, Day 10) was 2.8 ± 0.4 and the Onset (EAE [5]; peptide/CFA, Day 10) was 13.
